Source: ChEMBL document CHEMBL4364251, “Design, synthesis and biological evaluation of new quinoline derivatives as potential antitumor agents” (Eur J Med Chem, 2019)
Active and inactive are the calls of the source. No cut-off for these calls is given here.

Experiments:
HCT-116 [1] = assay: Induction of apoptosis in human HCT116 cells assessed as late apoptotic cells at 4 uM incubated for 24 hrs in presence of pan-caspase inhibitor z-VAD-FMK by annexin-V-FITC/PI staining based FACS analysis (reference value: 6.04%); type: functional
HCT-116 [2] = assay: Induction of apoptosis in human HCT116 cells assessed as viable cells at 4 uM incubated for 24 hrs in presence of pan-caspase inhibitor z-VAD-FMK by annexin-V-FITC/PI staining based FACS analysis (reference value: 85.28%); type: functional; conditions: HCT-116, 24 h, read-out: Activity
HCT-116 [3] = assay: Induction of apoptosis in human HCT116 cells assessed as necrotic cells at 8 uM incubated for 24 hrs by annexin-V-FITC/PI staining based FACS analysis (reference value: 0.71 to 2.26%); type: functional
HCT-116 [4] = assay: Induction of apoptosis in human HCT116 cells assessed as viable cells at 8 uM incubated for 24 hrs by annexin-V-FITC/PI staining based FACS analysis (reference value: 94.35 to 94.43%); type: functional; conditions: HCT-116, 24 h, read-out: Activity
HCT-116 [5] = assay: Induction of apoptosis in human HCT116 cells assessed as early apoptotic cells at 8 uM incubated for 24 hrs in presence of pan-caspase inhibitor z-VAD-FMK by annexin-V-FITC/PI staining based FACS analysis (reference value: 8.08%); type: functional
RKO [6] = assay: Antiproliferative activity against human RKO cells incubated for 48 hrs by MTT assay; type: functional, cell-based
BGC-823 = assay: Antiproliferative activity against human BGC823 cells incubated for 48 hrs by MTT assay; type: functional, cell-based; conditions: BGC-823, 48 h
RKO [7] = assay: Growth inhibition of human RKO cells incubated for 24 hrs by CCK-8 assay; type: functional, cell-based
HCT-116 [8] = assay: Growth inhibition of human HCT116 cells incubated for 24 hrs by CCK-8 assay; type: functional, cell-based
HCT-116 [9] = assay: Induction of apoptosis in human HCT116 cells assessed as early apoptotic cells at 4 uM incubated for 24 hrs by annexin-V-FITC/PI staining based FACS analysis (reference value: 1.77 to 3.38%); type: functional
HCT-116 [10] = assay: Induction of apoptosis in human HCT116 cells deficient in p53 assessed as increase in pro-caspase3 protein expression level at 4 to 8 uM incubated for 24 hrs by Western blot analysis; type: functional, cell-based
HCT-116 [11] = assay: Antiproliferative activity against human HCT116 expressing p53 (-/-) at 1 to 16 uM assessed as decrease cell viability incubated for 24 hrs by CCK-8 assay; type: functional, cell-based
HCT-116 [12] = assay: Induction of autophagy in human HCT116 cells deficient in ATG5 assessed as increase in LC3B-2 protein expression level at 4 to 8 uM by Western blot analysis; type: functional, cell-based
Mus musculus = assay: Antitumour activity against mouse […] cells implanted in BALB/c mouse assessed as decrease in tumour volume at 80 mg/kg administered once every three days for 21 days post tumour implantation and measured at day 13 by caliper method; type: functional, organism-based
[13] = Antitumour activity against mouse […] cells implanted in BALB/c mouse assessed inhibition in tumour growth at 80 mg/kg administered once every three days for 21 days post tumour implantation relative to control; type: functional; conditions: read-out: TGI
[14] = Toxicity in BALB/c mouse xenografted with mouse […] cells at 80 mg/kg administrated once every three days for 21 days; type: organism-based; conditions: in vivo, 504 h

With COc1cccc(Nc2ccnc3cc(OCCCc4ccccc4)ccc23)c1 the Activity (HCT-116 [1]) was 8.17%, the viability at 4 µM (HCT-116 [2]) was 75.1% and the Activity (HCT-116 [3]) was 2.19 - 5.82%. For the same compound, the viability at 8 µM (HCT-116 [4]) was 60.5 to 62.2%, the Activity (HCT-116 [5]) was 19.42% and the IC50 (RKO [6]) was 3.67 µM. For the same compound, the IC50 (BGC-823) was 9.08 µM, the “growth inhibition (GI)” value (RKO [7]) was “Dose-dependent effect” and the “growth inhibition (GI)” value (HCT-116 [8]) was “Dose-dependent effect”. The Activity (HCT-116 [9]) was 11.97%, the Activity (HCT-116 [10]) was “Active” and the Activity (HCT-116 [11]) was “Active”. For the same compound, the Activity (HCT-116 [12]) was “inactive”, the Activity (Mus musculus) was “Active” and the inhibition in vivo at 80 mg/kg [13] was 82.1%. The Activity [14] was “Non-Toxic”.
